Data: paper PMC3970082 (FEBS Open Bio, 2014)

Target: T1, 5-aminopentaneamide amide hydrolase (Pseudomonas sp. TPU-A5, UniProt W6JNP2)
T1 sequence (W6JNP2 1-504): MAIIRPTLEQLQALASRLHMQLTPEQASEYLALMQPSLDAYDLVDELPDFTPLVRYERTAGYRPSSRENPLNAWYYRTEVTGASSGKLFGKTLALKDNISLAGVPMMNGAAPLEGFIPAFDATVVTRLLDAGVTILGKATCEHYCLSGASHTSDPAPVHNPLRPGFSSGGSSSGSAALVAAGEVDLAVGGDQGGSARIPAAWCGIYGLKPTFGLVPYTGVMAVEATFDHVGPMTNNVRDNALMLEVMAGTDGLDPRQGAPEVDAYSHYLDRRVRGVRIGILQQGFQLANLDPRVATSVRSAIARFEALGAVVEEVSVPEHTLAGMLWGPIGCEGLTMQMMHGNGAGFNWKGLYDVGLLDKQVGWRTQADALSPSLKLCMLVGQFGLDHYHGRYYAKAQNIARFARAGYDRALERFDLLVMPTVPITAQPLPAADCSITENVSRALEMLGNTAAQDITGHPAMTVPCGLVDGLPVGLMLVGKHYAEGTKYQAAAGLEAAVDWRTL
Test: ammonia liberation
Format: biochemical
Settings: room temperature; purified fractions of native enzyme

## CCCCC(N)=O [valeramide]
  ammonia liberation (indophenol reaction): assayed at room temperature by measuring the ammonia liberated from valeramide degradation
